These results are taken from ChEMBL document CHEMBL2021812, “Aryltriflates as a Neglected Moiety in Medicinal Chemistry: A Case Study from a Lead Optimization of CXCL8 Inhibitors” (ACS Med Chem Lett, 2011).

By inhibition is commonly meant the change of the read-out against control, counted positive when it falls.

Active and inactive are the calls of the source. No cut-off for these calls is given here.

Series [1] is described as follows: Chemical stability of the compound assessed as compound remaining at pH 7.4 after 2 hrs. It is filed as physicochemical. Conditions: buffer, read-out: Stability.
Series [2] in a line: Half life in iv dosed rat plasma. In kind it is ADME, organism-based.
The nature of series [3]: Metabolic stability in rat liver microsomes assessed as compound remaining at 1 uM preincubated for 10 mins measured after 30 mins. In kind it is ADME, Microsome. To be noted: read-out: Stability.
A short description of series [4]: Metabolic stability in rat plasma assessed as compound remaining at 1 uM after 1 hr. In kind it is ADME, cell-free. Conditions: read-out: Stability.
In series [5] the target is T1, C-X-C chemokine receptor type 2 (Homo sapiens) (UniProt P25025).
T1 sequence (whole entry): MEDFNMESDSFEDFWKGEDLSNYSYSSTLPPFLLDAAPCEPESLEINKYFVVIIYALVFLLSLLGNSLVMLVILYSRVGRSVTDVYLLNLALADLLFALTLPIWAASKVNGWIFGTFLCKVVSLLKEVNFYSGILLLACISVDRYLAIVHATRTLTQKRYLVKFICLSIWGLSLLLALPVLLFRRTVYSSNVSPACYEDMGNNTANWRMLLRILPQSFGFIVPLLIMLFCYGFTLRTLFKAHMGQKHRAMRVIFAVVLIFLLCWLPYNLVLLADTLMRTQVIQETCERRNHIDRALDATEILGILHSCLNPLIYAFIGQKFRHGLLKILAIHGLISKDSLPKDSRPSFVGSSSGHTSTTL
The series can be described thus: Inhibition of CXCR2 in human polymorphonucleate cells assessed as inhibition of CXCL1-induced chemotaxis at 10^-8 M incubated for 15 mins prior to CXCL1-induction measured after 45 mins.

The target in series [6] is Interleukin-8 receptors, CXCR1/CXCR2 (Homo sapiens) (UniProt P25025+P25024). As to the kind of experiment: Inhibition of CXCR1/2 in human polymorphonucleate cells assessed as inhibition of CXCL8-induced chemotaxis at 10^-8 M incubated for 15 mins prior to CXCL8-induction measured after 45 mins.
Series [7] addresses CYP2C19 (Homo sapiens, UniProt P33261). As to the kind of experiment: Inhibition of CYP2C19 using DBF as substrate at 10 uM. Conditions: probe DBF. In kind it is ADME.
The target in series [8] is CYP2C9 (Homo sapiens, UniProt P11712). The series can be described thus: Inhibition of CYP2C9 using 7MFC as substrate at 10 uM. It is filed as ADME. To be noted: probe 7MFC.
Series [9] addresses CYP3A4 (Homo sapiens, UniProt P08684). As to the kind of experiment: Inhibition of CYP3A4 using BFC as substrate at 10 uM. In kind it is ADME. To be noted: probe BFC.
For series [10], the target named is CYP2D6 (Homo sapiens, UniProt P10635). As to the kind of experiment: Inhibition of CYP2D6 using AMMC as substrate at 10 uM. It is filed as ADME. To be noted: probe AMMC.
Series [11] concerns the target T2, CYP1A2 (Homo sapiens, UniProt P05177).
T2 sequence (P05177 whole entry): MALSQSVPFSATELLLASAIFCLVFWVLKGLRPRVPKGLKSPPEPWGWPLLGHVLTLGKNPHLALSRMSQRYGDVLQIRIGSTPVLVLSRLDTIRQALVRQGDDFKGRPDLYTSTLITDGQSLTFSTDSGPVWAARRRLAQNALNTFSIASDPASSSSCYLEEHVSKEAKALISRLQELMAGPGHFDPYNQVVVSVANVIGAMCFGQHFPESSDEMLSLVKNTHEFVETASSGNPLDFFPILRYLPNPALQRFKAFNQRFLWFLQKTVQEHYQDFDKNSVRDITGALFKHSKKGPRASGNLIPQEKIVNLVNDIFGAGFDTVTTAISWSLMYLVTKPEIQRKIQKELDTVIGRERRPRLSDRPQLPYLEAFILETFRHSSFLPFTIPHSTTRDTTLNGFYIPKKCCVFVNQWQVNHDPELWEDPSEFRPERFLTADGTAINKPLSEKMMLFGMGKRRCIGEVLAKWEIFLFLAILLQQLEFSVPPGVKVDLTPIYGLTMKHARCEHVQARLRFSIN
As to the kind of experiment: Inhibition of CYP1A2 using CEC as substrate at 10 uM. It is filed as ADME. To be noted: probe CEC.

Series [12] can be described thus: Elimination half life in Sprague-Dawley rat at 14 mg/kg, iv. Also on record: dose 14 mg/kg, route intravenous. It is filed as ADME, organism-based. Conditions: in vivo, read-out: beta t1/2 (converted).

CYP2C19, sequence (P33261 whole entry): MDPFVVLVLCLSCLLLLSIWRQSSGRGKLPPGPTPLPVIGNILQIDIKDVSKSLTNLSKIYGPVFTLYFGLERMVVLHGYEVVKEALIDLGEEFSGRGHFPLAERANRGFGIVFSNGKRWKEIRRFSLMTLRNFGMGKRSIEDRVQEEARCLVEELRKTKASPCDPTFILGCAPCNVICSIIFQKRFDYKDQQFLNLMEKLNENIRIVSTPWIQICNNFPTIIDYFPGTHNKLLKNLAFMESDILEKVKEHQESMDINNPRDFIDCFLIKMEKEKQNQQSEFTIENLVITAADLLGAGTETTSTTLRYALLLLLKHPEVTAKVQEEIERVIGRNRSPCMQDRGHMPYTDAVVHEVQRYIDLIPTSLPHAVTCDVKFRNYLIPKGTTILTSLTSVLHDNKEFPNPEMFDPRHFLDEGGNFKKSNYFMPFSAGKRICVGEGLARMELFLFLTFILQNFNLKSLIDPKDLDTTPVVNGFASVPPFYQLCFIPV
CYP2D6, sequence (P10635 whole entry): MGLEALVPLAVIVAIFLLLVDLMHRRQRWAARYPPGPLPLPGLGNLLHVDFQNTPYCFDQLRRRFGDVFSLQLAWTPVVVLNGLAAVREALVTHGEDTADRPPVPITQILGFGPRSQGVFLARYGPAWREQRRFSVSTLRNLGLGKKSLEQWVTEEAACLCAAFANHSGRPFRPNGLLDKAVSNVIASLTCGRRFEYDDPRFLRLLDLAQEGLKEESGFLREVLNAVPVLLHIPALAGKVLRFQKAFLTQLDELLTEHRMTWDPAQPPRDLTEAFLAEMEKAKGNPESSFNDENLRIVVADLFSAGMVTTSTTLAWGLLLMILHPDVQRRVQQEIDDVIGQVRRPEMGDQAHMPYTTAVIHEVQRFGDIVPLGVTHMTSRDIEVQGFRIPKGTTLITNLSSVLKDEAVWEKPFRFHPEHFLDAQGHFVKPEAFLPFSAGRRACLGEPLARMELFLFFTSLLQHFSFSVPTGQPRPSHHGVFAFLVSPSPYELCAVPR
CYP3A4, sequence (P08684 whole entry): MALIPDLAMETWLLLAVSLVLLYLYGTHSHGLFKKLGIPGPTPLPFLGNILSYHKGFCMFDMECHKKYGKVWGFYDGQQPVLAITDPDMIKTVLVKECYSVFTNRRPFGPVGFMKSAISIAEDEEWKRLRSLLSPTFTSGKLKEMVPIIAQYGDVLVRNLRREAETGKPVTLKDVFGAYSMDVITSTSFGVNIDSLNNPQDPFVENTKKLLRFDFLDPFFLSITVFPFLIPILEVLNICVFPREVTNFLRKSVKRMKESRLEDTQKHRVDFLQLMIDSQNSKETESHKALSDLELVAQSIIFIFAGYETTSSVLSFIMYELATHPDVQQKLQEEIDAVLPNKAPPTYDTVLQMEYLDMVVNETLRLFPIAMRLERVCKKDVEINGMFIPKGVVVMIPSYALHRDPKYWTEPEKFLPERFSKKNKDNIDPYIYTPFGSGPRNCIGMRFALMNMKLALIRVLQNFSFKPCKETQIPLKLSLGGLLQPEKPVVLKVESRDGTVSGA
CYP2C9, sequence (P11712 whole entry): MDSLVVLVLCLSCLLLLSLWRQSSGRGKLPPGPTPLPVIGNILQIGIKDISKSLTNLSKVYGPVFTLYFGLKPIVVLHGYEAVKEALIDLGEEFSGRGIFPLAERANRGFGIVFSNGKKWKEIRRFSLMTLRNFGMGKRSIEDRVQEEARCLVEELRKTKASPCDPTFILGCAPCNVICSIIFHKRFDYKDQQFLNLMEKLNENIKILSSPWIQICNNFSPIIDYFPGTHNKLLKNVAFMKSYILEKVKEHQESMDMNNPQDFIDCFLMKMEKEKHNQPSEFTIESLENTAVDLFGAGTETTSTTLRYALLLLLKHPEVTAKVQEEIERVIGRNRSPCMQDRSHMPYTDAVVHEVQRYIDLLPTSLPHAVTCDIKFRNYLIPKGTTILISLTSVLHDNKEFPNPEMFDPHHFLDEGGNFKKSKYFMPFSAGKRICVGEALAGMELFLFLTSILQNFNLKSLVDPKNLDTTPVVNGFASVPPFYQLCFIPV
Interleukin-8 receptors, CXCR1/CXCR2 (Homo sapiens), sequence (P25024 whole entry, looked up, one chain of several): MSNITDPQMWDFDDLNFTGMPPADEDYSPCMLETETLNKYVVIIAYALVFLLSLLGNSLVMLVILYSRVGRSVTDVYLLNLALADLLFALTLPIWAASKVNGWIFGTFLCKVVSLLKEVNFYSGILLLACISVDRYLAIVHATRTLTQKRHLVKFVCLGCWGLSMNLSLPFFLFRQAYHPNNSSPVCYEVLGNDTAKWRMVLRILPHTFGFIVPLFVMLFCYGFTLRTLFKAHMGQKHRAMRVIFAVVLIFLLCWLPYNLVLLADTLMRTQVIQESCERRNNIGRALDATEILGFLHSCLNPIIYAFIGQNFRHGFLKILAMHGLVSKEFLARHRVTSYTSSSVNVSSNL

`C[C@@H](C(=O)NO)c1ccc(OS(=O)(=O)C(F)(F)F)cc1`: the remaining at 2 h in series [1] is greater than 98%. The molecule also yielded a half-life in series [2] of less than 1 h. The remaining at 0.5 h, 1 µM in series [3] worked out at 87%. In addition, in series [4], the remaining at 1 h, 1 µM is 85%. Moreover, the results for the inhibition in series [5] and in [6] were 49% and 50%, respectively.
Regarding `C[C@@H](C(=O)Nc1nncs1)c1ccc(OS(=O)(=O)C(F)(F)F)cc1`, the inhibition at 10 µM was 70% in series [7]; 50% in series [8]; 66% in series [9]; 40% in series [10]; less than 5% in [11]. For the same molecule, the figures for the inhibition in series [5] and in series [6] were 55% and 54%, respectively.
`C[C@@H](C(N)=O)c1ccc(OS(=O)(=O)C(F)(F)F)cc1`: the remaining at 0.5 h, 1 µM in series [3] was determined as 80%. The inhibition in series [5] was 56%; in series [6], 58%.
Take `C[C@@H](C(=O)Nc1nnc[nH]1)c1ccc(OS(=O)(=O)C(F)(F)F)cc1`: the inhibition at 10 µM was 21% in series [7]; less than 5% in series [8]; 8% in [9]; less than 5% in [10]; less than 5% in [11]. Moreover, the inhibition in [5] came to 45%; in series [6] it was 44%.
With `C[C@@H](C(=O)Nc1nccs1)c1ccc(OS(=O)(=O)C(F)(F)F)cc1`, the inhibition at 10 µM is 87% in series [7]; 53% in series [8]; 52% in series [9]; 26% in series [10]; 36% in [11]. Also, the inhibition in [5] stood at 55%; in series [6] it was 56%.
`C[C@@H](C(=O)NS(=O)(=O)C1CC1)c1ccc(OS(=O)(=O)C(F)(F)F)cc1`: the inhibition in series [5] turned out to be 45%; in series [6] it was 44%.
Take `CC(C)NC(=O)[C@H](C)c1ccc(OS(=O)(=O)C(F)(F)F)cc1`: the remaining at 0.5 h, 1 µM in [3] was 75%. For the same molecule, the values for the inhibition in series [5] and in [6] were 65% and 58%, respectively.
Consider `C[C@H](C(=O)O)c1ccc(OS(=O)(=O)C(F)(F)F)cc1`, for which the inhibition result in series [5] and in series [6] was “inactive” throughout.
Take `C[C@@H](C(=O)Nc1ncco1)c1ccc(OS(=O)(=O)C(F)(F)F)cc1`: the inhibition at 10 µM is 90% in series [7]; 70% in [8]; 44% in [9]; less than 5% in series [10]; 15% in series [11]. Moreover, the inhibition in [5] is 46%; in series [6], 47%.
For the molecule `C[C@@H](C(=O)Nc1nc(C(F)(F)F)cs1)c1ccc(OS(=O)(=O)C(F)(F)F)cc1`, the inhibition at 10 µM in [7] came to 94%; in series [8], 73%; in series [9], 52%; in [10] it was 56%; in [11], 14%. The values for the inhibition in series [5] and in series [6] were 55% and 64%, respectively.
In the case of `C[C@@H](C(=O)Nc1nc(C(F)(F)F)co1)c1ccc(OS(=O)(=O)C(F)(F)F)cc1`, the inhibition at 10 µM was 94% in series [7]; 87% in [8]; 82% in series [9]; 38% in series [10]; less than 5% in [11]. The results for the inhibition in [5] and in series [6] were 50% and 60%, respectively.
For `C[C@@H](C(=O)NOCC1CC1)c1ccc(OS(=O)(=O)C(F)(F)F)cc1`, the inhibition in series [5] came to 35%; in series [6], 40%.
For `Cc1csc(NC(=O)[C@H](C)c2ccc(OS(=O)(=O)C(F)(F)F)cc2)n1`, the inhibition at 10 µM in series [7] was 90%; in [8], 60%; in series [9] it was 60%; in series [10], less than 5%; in series [11] it was 16%. Further, the inhibition was 50% in [5] and 58% in series [6].
For `C[C@@H](C(=O)N(C)O)c1ccc(OS(=O)(=O)C(F)(F)F)cc1`, the remaining at 2 h in [1] is greater than 98%. Further, in series [2], the half-life was less than 1 h. Moreover, the remaining at 0.5 h, 1 µM in series [3] was determined as 75%. Moreover, the remaining at 1 h, 1 µM in [4] turned out to be 96%. Besides, the figures for the inhibition in series [5] and in series [6] were 49% and 47%, respectively.
Take `CONC(=O)[C@H](C)c1ccc(OS(=O)(=O)C(F)(F)F)cc1`: the remaining at 2 h in series [1] is greater than 98%. Also, the half-life in [2] is less than 1 h. Also, in [3], the remaining at 0.5 h, 1 µM turned out to be 65%. In addition, the remaining at 1 h, 1 µM in series [4] is 90%. For the same molecule, the inhibition in series [5] worked out at 46%; in series [6] it was 56%.
Take `C[C@@H](C(=O)Nc1nnco1)c1ccc(OS(=O)(=O)C(F)(F)F)cc1`: the inhibition in series [5] is 48%; in series [6], 44%.
The like results for `C[C@H](C(=O)NS(C)(=O)=O)c1ccc(OS(=O)(=O)C(F)(F)F)cc1` were, in that order, “inactive” and “inactive”.
Turning to `C[C@@H](C(=O)Nc1ccccn1)c1ccc(OS(=O)(=O)C(F)(F)F)cc1`, the inhibition at 10 µM in series [7] is 97%; in series [8] it was 37%; in series [9], 15%; in series [10] it was 21%; in series [11], less than 5%. Further, the figures for the inhibition in [5] and in series [6] were 45% and 43%, respectively.
`CC(C)Cc1ccc([C@@H](C)C(=O)NS(C)(=O)=O)cc1` [REPARIXIN]: the inhibition in series [5] came to 22%; in series [6], 68%. The half-life in series [12] was 0.75 h.
For the molecule `CC(C)ONC(=O)[C@H](C)c1ccc(OS(=O)(=O)C(F)(F)F)cc1`, the remaining at 0.5 h, 1 µM in [3] is 75%. The remaining at 1 h, 1 µM in series [4] came out at 85%. The inhibition came out at 38% in series [5] and 49% in series [6].
